Assay results reported in US20200325518A1, “Systems and Methods for Metabolic Assessment Utilizing 1-Methoxy-PMS Field” (priority 2019, published 2020).

System: E. coli
Assay: CLSI overnight reference method MIC of antimicrobials against E. coli strains
Assay type: cell-based
Conditions: for MIC (CLSI Ref): unit assumed
[1] = E. coli strain Clinical Sample 1
[2] = E. coli strain Clinical Sample 2
[3] = E. coli strain Clinical Sample 4
[4] = E. coli strain Clinical Sample 5
[5] = E. coli strain Clinical Sample 6
[6] = E. coli strain Clinical Sample 7
[7] = E. coli strain Clinical Sample 8
[8] = E. coli strain Clinical Sample 9
[9] = E. coli strain Clinical Sample 10
[10] = E. coli strain Clinical Sample 11
[11] = E. coli strain Clinical Sample 12
[12] = E. coli strain Clinical Sample 13

Molecule	MIC (CLSI Ref) (E. coli strain BEI 4.097)	MIC (CLSI Ref) (E. coli strain CDC Carba36)	MIC (CLSI Ref) [1]	MIC (CLSI Ref) [2]	MIC (CLSI Ref) [3]	MIC (CLSI Ref) [4]	MIC (CLSI Ref) [5]	MIC (CLSI Ref) [6]	MIC (CLSI Ref) [7]	MIC (CLSI Ref) [8]	MIC (CLSI Ref) [9]	MIC (CLSI Ref) [10]	MIC (CLSI Ref) [11]	MIC (CLSI Ref) [12]	CLSI breakpoint interpretation [2]
Colistin [CST]	0.12 µg/mL	0.25 µg/mL	0.12 µg/mL	0.12 µg/mL	0.25 µg/mL	0.25 µg/mL	0.12 µg/mL	0.12 µg/mL	0.12 µg/mL	0.5 µg/mL	0.25 µg/mL	0.5 µg/mL	0.25 µg/mL	0.25 µg/mL	–
CN(C)[C@@H]1C(=O)C(C(N)=O)=C(O)[C@@]2(O)C(=O)C3=C(O)c4c(O)cccc4[C@@](C)(O)[C@H]3C[C@@H]12 [TET, Tetracycline]	32 µg/mL	8 µg/mL	4 µg/mL	> 32 µg/mL	4 µg/mL	> 32 µg/mL	2 µg/mL	4 µg/mL	8 µg/mL	4 µg/mL	4 µg/mL	4 µg/mL	4 µg/mL	4 µg/mL	R
C[C@H]1[C@H](NC(=O)/C(=N\OC(C)(C)C(=O)O)c2csc(N)n2)C(=O)N1S(=O)(=O)O [ATM, Aztreonam]	< 0.25 µg/mL	8 µg/mL	< 0.25 µg/mL	0.5 µg/mL	< 0.25 µg/mL	< 0.25 µg/mL	< 0.25 µg/mL	< 0.25 µg/mL	64 µg/mL	32 µg/mL	< 0.25 µg/mL	< 0.25 µg/mL	< 0.25 µg/mL	< 0.25 µg/mL	–
Piperacillin/tazobactam [TZP]	4 µg/mL	128 µg/mL	4 µg/mL	8 µg/mL	4 µg/mL	4 µg/mL	2 µg/mL	4 µg/mL	32 µg/mL	> 128 µg/mL	2 µg/mL	2 µg/mL	2 µg/mL	32 µg/mL	–
Ampicillin/sulbactam [SAM]	8 µg/mL	> 32 µg/mL	4 µg/mL	16 µg/mL	16 µg/mL	8 µg/mL	2 µg/mL	16 µg/mL	64 µg/mL	32 µg/mL	16 µg/mL	4 µg/mL	2 µg/mL	> 32 µg/mL	I
CC1(C)S[C@@H]2[C@H](NC(=O)[C@H](N)c3ccccc3)C(=O)N2[C@H]1C(=O)O [AMP, Ampicillin]	4 µg/mL	> 32 µg/mL	4 µg/mL	> 32 µg/mL	> 32 µg/mL	> 32 µg/mL	4 µg/mL	> 32 µg/mL	> 32 µg/mL	> 32 µg/mL	> 32 µg/mL	4 µg/mL	4 µg/mL	> 32 µg/mL	–
C[C@H]1COc2c(N3CCN(C)CC3)c(F)cc3c(=O)c(C(=O)O)cn1c23 [LVX, Levofloxacin]	< 0.06 µg/mL	> 8 µg/mL	< 0.06 µg/mL	< 0.06 µg/mL	> 8 µg/mL	> 8 µg/mL	< 0.06 µg/mL	< 0.06 µg/mL	< 0.06 µg/mL	> 8 µg/mL	8 µg/mL	< 0.06 µg/mL	0.5 µg/mL	< 0.06 µg/mL	–
C[C@@H](O)[C@H]1C(=O)N2C(C(=O)O)=C(S[C@@H]3CN[C@H](C(=O)Nc4cccc(C(=O)O)c4)C3)[C@H](C)[C@H]12 [ERT, Ertapenem]	0.008 µg/mL	0.12 µg/mL	0.008 µg/mL	0.015 µg/mL	0.008 µg/mL	0.008 µg/mL	0.008 µg/mL	0.008 µg/mL	0.25 µg/mL	0.12 µg/mL	0.008 µg/mL	0.008 µg/mL	0.008 µg/mL	0.016 µg/mL	–
Gentamycin	0.5 µg/mL	2 µg/mL	0.5 µg/mL	4 µg/mL	0.5 µg/mL	2 µg/mL	0.5 µg/mL	0.5 µg/mL	1 µg/mL	1 µg/mL	> 16 µg/mL	2 µg/mL	1 µg/mL	1 µg/mL	–
CC(C)(O/N=C(\C(=O)N[C@@H]1C(=O)N2C(C(=O)[O-])=C(C[n+]3ccccc3)CS[C@H]12)c1csc(N)n1)C(=O)O [CAZ, Ceftazidime]	0.25 µg/mL	4 µg/mL	0.25 µg/mL	2 µg/mL	0.25 µg/mL	0.25 µg/mL	0.12 µg/mL	0.25 µg/mL	> 32 µg/mL	> 32 µg/mL	0.12 µg/mL	0.25 µg/mL	0.12 µg/mL	0.12 µg/mL	–
Trimethoprim-Sulfamethoxazole [SXT]	< 0.5 µg/mL	< 0.5 µg/mL	< 0.5 µg/mL	4 µg/mL	> 32 µg/mL	> 32 µg/mL	2 µg/mL	> 32 µg/mL	< 0.5 µg/mL	> 32 µg/mL	> 32 µg/mL	< 0.5 µg/mL	< 0.5 µg/mL	< 0.5 µg/mL	R
NC[C@H]1O[C@H](O[C@H]2[C@H](O)[C@@H](O[C@H]3O[C@H](CO)[C@@H](O)[C@H](N)[C@H]3O)[C@H](N)C[C@@H]2N)[C@H](N)C[C@@H]1O [TOB, Tobramycin]	1 µg/mL	1 µg/mL	2 µg/mL	1 µg/mL	1 µg/mL	1 µg/mL	1 µg/mL	1 µg/mL	2 µg/mL	4 µg/mL	16 µg/mL	1 µg/mL	1 µg/mL	1 µg/mL	–
C[C@@H](O)[C@H]1C(=O)N2C(C(=O)O)=C(S[C@@H]3CN[C@H](C(=O)N(C)C)C3)[C@H](C)[C@H]12 [MEM, Meropenem]	< 0.06 µg/mL	< 0.06 µg/mL	< 0.06 µg/mL	< 0.06 µg/mL	< 0.06 µg/mL	< 0.06 µg/mL	< 0.06 µg/mL	< 0.06 µg/mL	< 0.06 µg/mL	< 0.06 µg/mL	< 0.06 µg/mL	< 0.06 µg/mL	< 0.06 µg/mL	< 0.06 µg/mL	–
CO/N=C(\C(=O)N[C@@H]1C(=O)N2C(C(=O)O)=C(CSc3nc(=O)c(=O)[nH]n3C)CS[C@H]12)c1csc(N)n1 [CRO, Ceftriaxone]	< 0.12 µg/mL	1 µg/mL	< 0.12 µg/mL	2 µg/mL	< 0.12 µg/mL	< 0.12 µg/mL	< 0.12 µg/mL	< 0.12 µg/mL	64 µg/mL	> 64 µg/mL	< 0.12 µg/mL	< 0.12 µg/mL	< 0.12 µg/mL	< 0.12 µg/mL	I
